Measurements published in paper PMC11170914, “A distinct dimer configuration of a diatom Get3 forming a tetrameric complex with its tail-anchored membrane cargo” (BMC Biology, 2024).

Target: T1, Pt-Get3a (Phaeodactylum tricornutum, UniProt B7G933)
T1 construct: gene PHATRDRAFT_22896; full length, residues 1-349; expressed in E. coli; N-terminal 6His tag cleaved by TEV protease
T1 sequence (B7G933 1-349): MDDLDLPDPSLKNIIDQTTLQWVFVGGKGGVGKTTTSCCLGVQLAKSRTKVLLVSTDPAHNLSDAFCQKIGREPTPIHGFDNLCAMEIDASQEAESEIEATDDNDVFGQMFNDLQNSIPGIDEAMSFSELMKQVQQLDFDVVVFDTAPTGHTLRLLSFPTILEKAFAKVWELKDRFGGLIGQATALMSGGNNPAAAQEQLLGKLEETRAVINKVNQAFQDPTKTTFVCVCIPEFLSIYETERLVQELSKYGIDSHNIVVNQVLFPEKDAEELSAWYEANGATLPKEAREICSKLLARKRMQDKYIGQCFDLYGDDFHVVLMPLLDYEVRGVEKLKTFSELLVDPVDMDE
Experiment: X-ray crystallography, […] Å
Settings: co-crystal with 2 mM ADP, 2 mM MgCl2, 2 mM AlCl3, 8 mM NaF, pH 4.7, 25 °C; Mg2+/ADP in nucleotide-binding domain

Structure (SMILES): Nc1ncnc2c1ncn2[C@@H]1O[C@H](COP(=O)(O)OP(=O)(O)O)[C@@H](O)[C@H]1O [ADP]
- X-ray crystallography, 2.32 Å: an ADP and a magnesium ion were observed in the two crystallographic independent monomers
